Values of other authors as cited in PubChem BioAssay AID1259409 (Chemical Carcinogenesis Research Information System (CCRIS), 2018).

System: rodent chemically induced tumor inhibition, incidence and multiplicity
Assay: CCRIS tumor inhibitor studies

Structure (SMILES): C=C1/C(=C\C=C2/CCC[C@]3(C)[C@@H]([C@H](C)CC[C@@H](CC)C(C)C)CC[C@@H]23)C[C@@H](O)C[C@@H]1O
- tumour outcome (control, treated, inhibition, significance) (Carcinogen: 7,12-DIMETHYLBENZ[A]ANTHRACENE (57-97-6), Dose [Inhibitor]: 40 MG/KG DIET 1 WK AFTER CARCINOGEN TO END, Route [Inhibitor]: DIET, Species: RAT, Strain/Sex: SPRAGUE-DAWLEY/FEMALE, Target Tissue: Type of Lesion: MAMMARY GLAND: TUMOR, Dose [Carcinogen]: 15 MG AT 50 D OF AGE, ONCE): 85%, 50%, 41%, p<0.05
- tumour outcome (control, treated, inhibition, significance) (Carcinogen: 7,12-DIMETHYLBENZ[A]ANTHRACENE (57-97-6), Dose [Inhibitor]: 40 MG/KG DIET 2 WKS BEFORE CARCINOGEN AND 1 WK AFTER CARCINOGEN, Route [Inhibitor]: DIET, Species: RAT, Strain/Sex: SPRAGUE-DAWLEY/FEMALE, Target Tissue: Type of Lesion: MAMMARY GLAND: TUMOR, Dose [Carcinogen]: 15 MG AT 50 D OF AGE, ONCE): 85%, 70%, 18%, not significant
- tumour outcome (control, treated, inhibition, significance) (Carcinogen: 7,12-DIMETHYLBENZ[A]ANTHRACENE (57-97-6), Dose [Inhibitor]: 40 MG/KG DIET 2 WKS BEFORE CARCINOGEN TO END, Route [Inhibitor]: DIET, Species: RAT, Strain/Sex: SPRAGUE-DAWLEY/FEMALE, Target Tissue: Type of Lesion: MAMMARY GLAND: TUMOR, Dose [Carcinogen]: 15 MG AT 50 D OF AGE, ONCE): 85%, 50%, 41%, not calculated
- outcome (Carcinogen: AZOXYMETHANE (25843-45-2), Dose [Inhibitor]: 25 UG/KG DIET 2 WKS AFTER CARCINOGEN TO END (STUDY DURATION: 10 WKS), Route [Inhibitor]: DIET, Species: MOUSE, Strain/Sex: CF-1, Target Tissue: Type of Lesion: COLON: TOTAL ABERRANT CRYPT FOCI (SURROGATE FOR COLON TUMOR), Dose [Carcinogen]: 10 MG/KG BW WEEKLY FOR 2 WKS (STUDY DURATION: 10 WKS)): 9.6, 2.0, 79%, not calculated
- outcome (Carcinogen: AZOXYMETHANE (25843-45-2), Dose [Inhibitor]: 25 UG/KG DIET 2 WKS BEFORE CARCINOGEN TO 2 WKS AFTER (STUDY DURATION: 10 WKS), Route [Inhibitor]: DIET, Species: MOUSE, Strain/Sex: CF-1, Target Tissue: Type of Lesion: COLON: TOTAL ABERRANT CRYPT FOCI (SURROGATE FOR COLON TUMOR), Dose [Carcinogen]: 10 MG/KG BW WEEKLY FOR 2 WKS (STUDY DURATION: 10 WKS)): 9.6, 2.8, 71%, not calculated
- outcome (Carcinogen: AZOXYMETHANE (25843-45-2), Dose [Inhibitor]: 25 UG/KG DIET 2 WKS BEFORE CARCINOGEN TO END (STUDY DURATION: 10 WKS), Route [Inhibitor]: DIET, Species: MOUSE, Strain/Sex: CF-1, Target Tissue: Type of Lesion: COLON: TOTAL ABERRANT CRYPT FOCI (SURROGATE FOR COLON TUMOR), Dose [Carcinogen]: 10 MG/KG BW WEEKLY FOR 2 WKS (STUDY DURATION: 10 WKS)): 9.6, 1.8, 81%, not calculated
- outcome (Carcinogen: AZOXYMETHANE (25843-45-2), Dose [Inhibitor]: 25 UG/KG DIET 7 D BEFORE CARCINOGEN TO END OF STUDY, Route [Inhibitor]: DIET, Species: MOUSE, Strain/Sex: CF-1, Target Tissue: Type of Lesion: COLON: ABERRANT CRYPT FOCI (SURROGATE FOR COLON TUMOR), Dose [Carcinogen]: 10 MG/KG BW WEEKLY FOR 2 WKS): 29%, 1.4, 95%, p<0.001
- outcome (Carcinogen: N-METHYL-N-NITROSOUREA ( 684-93-5), Dose [Inhibitor]: 0, 25, 50 UG/KG DIET 2 WKS BEFORE CARCINOGEN CONTINUING FOR 120 D (STUDY DURATION: 120 D), Dose [Inhibitor]: 0, 25, 50 UG/KG DIET 2 WKS BEFORE CARCINOGEN CONTINUING FOR 120 D (STUDY DURATION: 120 D), Route [Inhibitor]: DIET, Species: RAT, Strain/Sex: SPRAGUE-DAWLEY/FEMALE, Target Tissue: Type of Lesion: MAMMARY GLAND: TUMOR, Dose [Carcinogen]: 50 MG/KG BW ONCE): 80%, 53%, 34%, not calculated; 47%, 41%, not calculated
- tumour outcome (control, treated, inhibition, significance) (Carcinogen: N-METHYL-N-NITROSOUREA, 684-93-5, Dose [Inhibitor]: 0, 25 UG/KG DIET AT 65 D OF AGE FOR THE DURATION OF THE STUDY (STUDY DURATION: 120 D), Route [Inhibitor]: ORAL, Species: RAT, Strain/Sex: SPRAGUE-DAWLEY, Target Tissue: Type of Lesion: MAMMARY GLAND: TUMOR, Dose [Carcinogen]: 50 MG/KG BW ONCE AT 80 D OF AGE, Promoter: NONE): 12/15 (80%), 8/15 (53%), 33%, not significant
- tumour outcome (control, treated, inhibition, significance) (Carcinogen: N-METHYL-N-NITROSOUREA, 684-93-5, Dose [Inhibitor]: 0, 50 UG/KG DIET AT 65 D OF AGE FOR THE DURATION OF THE STUDY (STUDY DURATION: 120 D), Route [Inhibitor]: ORAL, Species: RAT, Strain/Sex: SPRAGUE-DAWLEY, Target Tissue: Type of Lesion: MAMMARY GLAND: TUMOR, Dose [Carcinogen]: 50 MG/KG BW ONCE AT 80 D OF AGE, Promoter: NONE): 12/15 (80%), 7/15 (47%), 41%, p=0.03

Structure (SMILES): c1ccc2c(c1)Oc1ccccc1O2
- tumour outcome (control, treated, inhibition, significance) (Carcinogen: 7,12-DIMETHYLBENZ[A]ANTHRACENE, 57-97-6, Dose [Inhibitor]: 0, 17 NMOL 2/WK APPLIED 1 HR PRIOR TO EACH PROMOTER DOSE FOR 20 WK (STUDY DURATION: 21 WK), Route [Inhibitor]: DERMAL, Species: MOUSE, Target Tissue: Type of Lesion: SKIN: TUMOR, Dose [Carcinogen]: 390 NMOL ONCE, Promoter: 12-O-TETRADECANOYLPHORBOL-13-ACETATE, 16561-29-8): 100%, 73%, 27%, not calculated

Structure (SMILES): O=c1cc[nH]c(=O)[nH]1
- tumour outcome (control, treated, inhibition, significance) (Carcinogen: 7,12-DIMETHYLBENZ[A]ANTHRACENE, 57-97-6, Dose [Inhibitor]: 1.5% IN 20% PROTEIN DIET (STUDY DURATION: 100 D), Route [Inhibitor]: ORAL, Species: RAT, Strain/Sex: STRAIN-CB/FEMALE, Target Tissue: Type of Lesion: MAMMARY GLAND: TUMOR, Dose [Carcinogen]: 15 MG IN 1 ML ARACHIS OIL 1/2 WK FOR 3 DOSES STARTING AT 30 D OF AGE, Promoter: NONE USED): 18/18 (100%), 18/21 (86%), 14%, not calculated
- tumour outcome (control, treated, inhibition, significance) (Carcinogen: N-METHYL-N-NITROSOUREA, 684-93-5, Dose [Inhibitor]: 0, 3% IN DIET FOR 20 WK BEGINNING POST LAST CARCINOGEN DOSE (STUDY DURATION: 24 WK), Route [Inhibitor]: ORAL, Species: RAT, Strain/Sex: F344/MALE, Target Tissue: Type of Lesion: LUNG: ADENOMA, Dose [Carcinogen]: 20 MG/KG 2/WK FOR 4 WK, Promoter: NONE USED): 3/11 (27%), 0/9 (0%), 100%, not significant
- tumour outcome (control, treated, inhibition, significance) (Carcinogen: N-METHYL-N-NITROSOUREA, 684-93-5, Dose [Inhibitor]: 0, 3% IN DIET FOR 20 WK BEGINNING POST LAST CARCINOGEN DOSE (STUDY DURATION: 24 WK), Route [Inhibitor]: ORAL, Species: RAT, Strain/Sex: F344/MALE, Target Tissue: Type of Lesion: THYROID: ADENOMA, CARCINOMA, Dose [Carcinogen]: 20 MG/KG 2/WK FOR 4 WK, Promoter: NONE USED): 6/11 (55%), 1/11 (10%), 82%, p>0.05
